According to the NIST ThermoML archive (doi:10.1021/je030236t):
± gives the expanded uncertainty stated by the source.

Experiments:
[1] = Molar enthalpy of transition or fusion; conditions: Crystal; DSC
[2] = Liquid
[3] = molar enthalpy of vaporization or sublimation; conditions: 298.15 K; Liquid

c1ccc(-c2cc(-c3ccccc3)cc(-c3ccccc3)c2)cc1 [1,3,5-triphenylbenzene]
Conditions | Molar enthalpy of transition or fusion [kcal/mol]
[1] | 7.43 ± 0.215

CCCCCCCCCCCCCCCCCCCCCCCCCCCCCCCC [dotriacontane]
[2]
Conditions | vapor or sublimation pressure [kPa]
298.15 K | 3.62e-12 ± 7.3e-13
310 K | 4.33e-11 ± 8.7e-12
320 K | 2.95e-10 ± 5.9e-11
330 K | 1.74e-09 ± 3.5e-10
340 K | 8.99e-09 ± 1.8e-09
350 K | 4.12e-08 ± 8.2e-09
360 K | 1.69e-07 ± 3.4e-08
370 K | 6.31e-07 ± 1.3e-07
380 K | 2.14e-06 ± 4.3e-07
390 K | 6.71e-06 ± 1.3e-06
400 K | 1.95e-05 ± 3.9e-06
410 K | 5.27e-05 ± 1e-05
420 K | 0.000134 ± 2.7e-05
430 K | 0.000321 ± 6.4e-05
440 K | 0.000729 ± 0.00015
450 K | 0.00158 ± 0.00032
460 K | 0.00325 ± 0.00065
470 K | 0.00643 ± 0.0013
480 K | 0.0122 ± 0.0024
490 K | 0.0224 ± 0.0045
500 K | 0.0398 ± 0.008
510 K | 0.0684 ± 0.014
520 K | 0.114 ± 0.023
530 K | 0.185 ± 0.037
540 K | 0.294 ± 0.059
550 K | 0.454 ± 0.091
560 K | 0.687 ± 0.14
570 K | 1.02 ± 0.2
580 K | 1.48 ± 0.3

Conditions | molar enthalpy [kcal/mol]
[3] | 38.8 ± 2.01

CCCCCCCCCCCCCCCCCCCCCCCCCCCCCCC [hentriacontane]
[2]
Conditions | vapor or sublimation pressure [kPa]
298.15 K | 1.11e-11 ± 2.2e-12
310 K | 1.23e-10 ± 2.5e-11
320 K | 7.88e-10 ± 1.6e-10
330 K | 4.39e-09 ± 8.8e-10
340 K | 2.15e-08 ± 4.3e-09
350 K | 9.39e-08 ± 1.9e-08
360 K | 3.69e-07 ± 7.4e-08
370 K | 1.32e-06 ± 2.6e-07
380 K | 4.3e-06 ± 8.6e-07
390 K | 1.3e-05 ± 2.6e-06
400 K | 3.64e-05 ± 7.3e-06
410 K | 9.56e-05 ± 1.9e-05
420 K | 0.000236 ± 4.7e-05
430 K | 0.00055 ± 0.00011
440 K | 0.00122 ± 0.00024
450 K | 0.00256 ± 0.00051
460 K | 0.00517 ± 0.001
470 K | 0.01 ± 0.002
480 K | 0.0187 ± 0.0037
490 K | 0.0336 ± 0.0067
500 K | 0.0585 ± 0.012
510 K | 0.0989 ± 0.02
520 K | 0.163 ± 0.033
530 K | 0.26 ± 0.052
540 K | 0.406 ± 0.081
550 K | 0.619 ± 0.12
560 K | 0.925 ± 0.18
570 K | 1.35 ± 0.27
580 K | 1.95 ± 0.39

Conditions | molar enthalpy [kcal/mol]
[3] | 37.6 ± 1.96

CCCCCCCCCCCCCCCCCCCCCCCCCCCCCCCCCCCCC [heptatriacontane]
[2]
Conditions | vapor or sublimation pressure [kPa]
298.15 K | 1.49e-14 ± 4.5e-15
310 K | 2.63e-13 ± 7.9e-14
320 K | 2.43e-12 ± 7.3e-13
330 K | 1.89e-11 ± 5.7e-12
340 K | 1.26e-10 ± 3.8e-11
350 K | 7.35e-10 ± 2.2e-10
360 K | 3.77e-09 ± 1.1e-09
370 K | 1.72e-08 ± 5.2e-09
380 K | 7.09e-08 ± 2.1e-08
390 K | 2.65e-07 ± 8e-08
400 K | 9.09e-07 ± 2.7e-07
410 K | 2.87e-06 ± 8.6e-07
420 K | 8.43e-06 ± 2.5e-06
430 K | 2.31e-05 ± 6.9e-06
440 K | 5.96e-05 ± 1.8e-05
450 K | 0.000145 ± 4.4e-05
460 K | 0.000335 ± 0.0001
470 K | 0.000735 ± 0.00022
480 K | 0.00154 ± 0.00046
490 K | 0.0031 ± 0.00093
500 K | 0.006 ± 0.0018
510 K | 0.0112 ± 0.0034
520 K | 0.0202 ± 0.0061
530 K | 0.0353 ± 0.011
540 K | 0.0598 ± 0.018
550 K | 0.0987 ± 0.03
560 K | 0.159 ± 0.048
570 K | 0.25 ± 0.075
580 K | 0.383 ± 0.12

Conditions | molar enthalpy [kcal/mol]
[3] | 44.8 ± 2.29

CCCCCCCCCCCCCCCCCCCCCCCCCCCCCCCCCCCC [hexatriacontane]
[2]
Conditions | vapor or sublimation pressure [kPa]
298.15 K | 4.51e-14 ± 1.4e-14
310 K | 7.39e-13 ± 2.2e-13
320 K | 6.41e-12 ± 1.9e-12
330 K | 4.72e-11 ± 1.4e-11
340 K | 3e-10 ± 9e-11
350 K | 1.66e-09 ± 5e-10
360 K | 8.16e-09 ± 2.5e-09
370 K | 3.58e-08 ± 1.1e-08
380 K | 1.42e-07 ± 4.3e-08
390 K | 5.12e-07 ± 1.5e-07
400 K | 1.7e-06 ± 5.1e-07
410 K | 5.2e-06 ± 1.6e-06
420 K | 1.48e-05 ± 4.4e-06
430 K | 3.96e-05 ± 1.2e-05
440 K | 9.96e-05 ± 3e-05
450 K | 0.000237 ± 7.1e-05
460 K | 0.000534 ± 0.00016
470 K | 0.00115 ± 0.00035
480 K | 0.00236 ± 0.00071
490 K | 0.00467 ± 0.0014
500 K | 0.00888 ± 0.0027
510 K | 0.0163 ± 0.0049
520 K | 0.0289 ± 0.0087
530 K | 0.0498 ± 0.015
540 K | 0.0834 ± 0.025
550 K | 0.136 ± 0.041
560 K | 0.216 ± 0.065
570 K | 0.336 ± 0.1
580 K | 0.51 ± 0.15

Conditions | molar enthalpy [kcal/mol]
[3] | 43.7 ± 2.25

CCCCCCCCCCCCCCCCCCCCCCCCCCCCCCCCCCCCCC [octatriacontane]
[2]
Conditions | vapor or sublimation pressure [kPa]
298.15 K | 5.13e-15 ± 1.5e-15
310 K | 9.81e-14 ± 2.9e-14
320 K | 9.59e-13 ± 2.9e-13
330 K | 7.88e-12 ± 2.4e-12
340 K | 5.54e-11 ± 1.7e-11
350 K | 3.38e-10 ± 1e-10
360 K | 1.81e-09 ± 5.4e-10
370 K | 8.6e-09 ± 2.6e-09
380 K | 3.67e-08 ± 1.1e-08
390 K | 1.42e-07 ± 4.3e-08
400 K | 5.03e-07 ± 1.5e-07
410 K | 1.64e-06 ± 4.9e-07
420 K | 4.95e-06 ± 1.5e-06
430 K | 1.39e-05 ± 4.2e-06
440 K | 3.68e-05 ± 1.1e-05
450 K | 9.16e-05 ± 2.8e-05
460 K | 0.000216 ± 6.5e-05
470 K | 0.000484 ± 0.00015
480 K | 0.00104 ± 0.00031
490 K | 0.00212 ± 0.00064
500 K | 0.00417 ± 0.0013
510 K | 0.00791 ± 0.0024
520 K | 0.0145 ± 0.0044
530 K | 0.0257 ± 0.0077
540 K | 0.0441 ± 0.013
550 K | 0.0738 ± 0.022
560 K | 0.12 ± 0.036
570 K | 0.191 ± 0.057
580 K | 0.296 ± 0.089

Conditions | molar enthalpy [kcal/mol]
[3] | 46 ± 2.34

CCCCCCCCCCCCCCCCCCCCCCCCCCCCCCCCCCC [pentatriacontane]
[2]
Conditions | vapor or sublimation pressure [kPa]
298.15 K | 1.22e-13 ± 3.7e-14
310 K | 1.86e-12 ± 5.6e-13
320 K | 1.53e-11 ± 4.6e-12
330 K | 1.07e-10 ± 3.2e-11
340 K | 6.52e-10 ± 2e-10
350 K | 3.46e-09 ± 1e-09
360 K | 1.63e-08 ± 4.9e-09
370 K | 6.91e-08 ± 2.1e-08
380 K | 2.64e-07 ± 7.9e-08
390 K | 9.25e-07 ± 2.8e-07
400 K | 2.97e-06 ± 8.9e-07
410 K | 8.87e-06 ± 2.7e-06
420 K | 2.46e-05 ± 7.4e-06
430 K | 6.42e-05 ± 1.9e-05
440 K | 0.000158 ± 4.7e-05
450 K | 0.000367 ± 0.00011
460 K | 0.000812 ± 0.00024
470 K | 0.00171 ± 0.00051
480 K | 0.00346 ± 0.001
490 K | 0.00673 ± 0.002
500 K | 0.0126 ± 0.0038
510 K | 0.0228 ± 0.0068
520 K | 0.0399 ± 0.012
530 K | 0.0678 ± 0.02
540 K | 0.112 ± 0.034
550 K | 0.181 ± 0.054
560 K | 0.284 ± 0.085
570 K | 0.436 ± 0.13
580 K | 0.657 ± 0.2

Conditions | molar enthalpy [kcal/mol]
[3] | 42.5 ± 2.2

CCCCCCCCCCCCCCCCCCCCCCCCCCCCCCCCCC [tetratriacontane]
[2]
Conditions | vapor or sublimation pressure [kPa]
298.15 K | 3.83e-13 ± 7.7e-14
310 K | 5.39e-12 ± 1.1e-12
320 K | 4.16e-11 ± 8.3e-12
330 K | 2.75e-10 ± 5.5e-11
340 K | 1.58e-09 ± 3.2e-10
350 K | 7.97e-09 ± 1.6e-09
360 K | 3.59e-08 ± 7.2e-09
370 K | 1.45e-07 ± 2.9e-08
380 K | 5.34e-07 ± 1.1e-07
390 K | 1.8e-06 ± 3.6e-07
400 K | 5.58e-06 ± 1.1e-06
410 K | 1.61e-05 ± 3.2e-06
420 K | 4.34e-05 ± 8.7e-06
430 K | 0.00011 ± 2.2e-05
440 K | 0.000263 ± 5.3e-05
450 K | 0.000596 ± 0.00012
460 K | 0.00129 ± 0.00026
470 K | 0.00266 ± 0.00053
480 K | 0.00527 ± 0.001
490 K | 0.01 ± 0.002
500 K | 0.0184 ± 0.0037
510 K | 0.0328 ± 0.0066
520 K | 0.0564 ± 0.011
530 K | 0.0944 ± 0.019
540 K | 0.154 ± 0.031
550 K | 0.244 ± 0.049
560 K | 0.379 ± 0.076
570 K | 0.575 ± 0.12
580 K | 0.856 ± 0.17

Conditions | molar enthalpy [kcal/mol]
[3] | 41.3 ± 2.1

CCCCCCCCCCCCCCCCCCCCCCCCCCCCCCCCC [tritriacontane]
[2]
Conditions | vapor or sublimation pressure [kPa]
298.15 K | 1.19e-12 ± 2.4e-13
310 K | 1.54e-11 ± 3.1e-12
320 K | 1.11e-10 ± 2.2e-11
330 K | 6.95e-10 ± 1.4e-10
340 K | 3.79e-09 ± 7.6e-10
350 K | 1.82e-08 ± 3.6e-09
360 K | 7.83e-08 ± 1.6e-08
370 K | 3.04e-07 ± 6.1e-08
380 K | 1.07e-06 ± 2.1e-07
390 K | 3.49e-06 ± 7e-07
400 K | 1.05e-05 ± 2.1e-06
410 K | 2.92e-05 ± 5.8e-06
420 K | 7.65e-05 ± 1.5e-05
430 K | 0.000189 ± 3.8e-05
440 K | 0.000439 ± 8.8e-05
450 K | 0.000972 ± 0.00019
460 K | 0.00205 ± 0.00041
470 K | 0.00415 ± 0.00083
480 K | 0.00805 ± 0.0016
490 K | 0.015 ± 0.003
500 K | 0.0272 ± 0.0054
510 K | 0.0474 ± 0.0095
520 K | 0.0804 ± 0.016
530 K | 0.133 ± 0.027
540 K | 0.213 ± 0.043
550 K | 0.334 ± 0.067
560 K | 0.511 ± 0.1
570 K | 0.767 ± 0.15
580 K | 1.13 ± 0.23

Conditions | molar enthalpy [kcal/mol]
[3] | 40.1 ± 2.06
